Patent publication US20050203191A1, “1-Aminocyclohexane derivatives for the treatment of agitation and other behavioral disorders, especially those associated with alzheimer's disease” (priority 2004, published 2005)

Tests used:
[1] = humans; cited from earlier work
[2] = test system: patients suffering from moderate to severe AD; assay: MZ-9605 (Therapy Example 1): 28-week double-blind placebo-controlled trial of memantine 20 mg/day; type: in vivo, human
Protocol: Patients suffering from moderate to severe AD were randomized to placebo or 20 mg memantine daily for 28 weeks. Primary efficacy variables were the Clinician's Interview-Based Impression of Change plus caregiver input (CIBIC-Plus) and the Alzheimer's Disease Cooperative Study Activities of Daily Living Inventory modified for severe dementia (ADCS-ADL). Secondary efficacy variables included the Severe Impairment Battery (SIB) and Neuropsychiatric Inventory (NPI). Treatment differences between baseline and endpoint were assessed. Incomplete observations were imputed using the most recent previous observation (last observation carried forward—LOCF). Results were also analyzed using only the observed values, where missing values were not replaced (Observed Cases (OC) analysis). AD patients (N=252), (67 percent female, mean age=76 years), were randomized from 32 U.S. centers. Of these, 181 completed the study (72 percent) and were evaluated at week 28. Seventy-one patients discontinued treatment prematurely (42 placebo, 29 memantine). Change on the CIBIC-Plus favored memantine over placebo (P=0.06 LOCF, P=0.03 OC) Memantine-treated patients deteriorated less than placebo treated patients on the ADCS-ADL (P=0.02 LOCF, P=0.003 OC) and the SBI (P=<0.001 LOCF, P=0.002 OC). NPI change scores at week 28 were statistically significant. Depending on the type of analysis, this benefit was found in two domains: agitation (p=0.008 LOCF) and delusion (p=0.04 LOCF) or for agitation, only (p=0.023 OC). The finding for agitation also occurred in the dichotomised analyses for memantine-treated patients with and without behavioural symptoms at baseline. […] This study supports the antiglutamatergic treatment approach in moderate to severe AD, a phase associated with patient distress and caregiver burden, for which other treatments are not available and the treatment of behavioral disorders associated therewith.
Community residing patients at least 50 years old with probable AD according to Diagnostic and Statistical Manual of Mental Disorders (DSM-IV) (American Psychiatric Association. Diagnostic and statistical manual of mental disorders. 4th ed. Washington: American Psychiatric Association; 1994.) and National Institute of Neurologic and Communicative Disorders and Stroke and AD and Related Disorders Association (NINCDS-ADRDA) criteria (McKhann G, Drachman D, Folstein M, Katzman R, Price D, Stadlan E M, Clinical diagnosis of Alzheimer's disease: report of the NINCDS-ADRDA Work Group under the auspices of Department of Health and Human Services Task Force on Alzheimer's Disease. Neurology 1984;34:939-44) were recruited. Eligibility criteria included: baseline Mini-Mental State Examination (MMSE) scores of 3-14 (Folstein M F, Folstein, S E, McHugh, P R, Mini-mental state. A practical method for grading the cognitive state of patients for the clinician. J Psychiat Res 1975;12:189-98.), stage 5 or 6 on the Global Deterioration Scale (GDS) (Reisberg B, Ferris S H, de Leon M J, Crook T, The Global Deterioration Scale for assessment of primary degenerative dementia. Am J Psychiatry 1982;139:1136-9.), and a stage of 6a or greater on the Functional Assessment Staging (FAST) (Sclan S G, Reisberg B, Functional assessment staging (FAST) in Alzheimer's disease: reliability, validity, and ordinality. Int Psychogeriatr 1992;4 Suppl 1:55-69.) instrument, signifying the presence of dementia-related deficits in the ability to perform one or more basic activities of daily living. Patients had reliable caregivers and recent (within 12 months) computed tomography (CT) or magnetic resonance imaging (MRI). […]

[3] = MZ-9605, week 28, ITT LOCF, NPI total score <75%
[4] = MZ-9605, week 28, ITT LOCF, NPI total score ≧=75% (top quartile)
[5] = MZ-9605, week 28, ITT LOCF, antipsychotics usage “YES” (N = n)
[6] = MZ-9605, week 28, ITT LOCF, antipsychotics usage “YES” (N = y)
[7] = MZ-9605, week 28, ITT LOCF, baseline NPI agitation score <4
[8] = MZ-9605, week 28, ITT LOCF, baseline NPI agitation score ≧=4
[9] = MZ-9605, week 28, ITT LOCF, overall

CC12CC3CC(C)(C1)CC(N)(C3)C2 [memantine, 1-amino-3,5-dimethyl adamantane]
therapeutically effective circulating concentration [1]: 1 µM
adverse events ([2]; 20 mg/day, 28 weeks): not associated with significant adverse events
patients who experienced an adverse event of agitation ([2]; 20 mg/day, 28 weeks): 18%
premature discontinuations due to adverse events ([2]; 20 mg/day, prior to week 28): 10%
Change (baseline to week 28) in NPI domain Aberr. Mot. Behavior ([2]; ITT, OC): 0.01
Change (baseline to week 28) in NPI domain Agitation/Aggression ([2]; ITT, OC): −0.01
Change (baseline to week 28) in NPI domain Anxiety ([2]; ITT, OC): 0.51
Change (baseline to week 28) in NPI domain Apathy/Indifference ([2]; ITT, OC): −0.25
Change (baseline to week 28) in NPI domain App./Eating Change ([2]; ITT, OC): 0.00
Change (baseline to week 28) in NPI domain Delusions ([2]; ITT, OC): −0.38
Change (baseline to week 28) in NPI domain Depression/Dysphoria ([2]; ITT, OC): 0.00
Change (baseline to week 28) in NPI domain Disinhibition ([2]; ITT, OC): −0.53
Change (baseline to week 28) in NPI domain Elation/Euphoria ([2]; ITT, OC): 0.18
Change (baseline to week 28) in NPI domain Hallucinations ([2]; ITT, OC): 0.47
Change (baseline to week 28) in NPI domain Irritabililty/Lability ([2]; ITT, OC): 0.04
Change (baseline to week 28) in NPI domain Night-time Behavior ([2]; ITT, OC): 0.05
ADCS-ADL (change) LS Mean Diff., MEM v. PLA [2, 3]: 1.48
ADCS-ADL (change) mean [2, 3]: −3.4
CIBIC-PLUS Raw Mean Diff., MEM v. PLA [2, 3]: −0.2
CIBIC-PLUS mean [2, 3]: 4.4
SIB (change) LS Mean Diff., MEM v. PLA [2, 3]: 3.36
SIB (change) mean [2, 3]: −5.6
ADCS-ADL (change) LS Mean Diff., MEM v. PLA [2, 4]: −3.47
ADCS-ADL (change) mean [2, 4]: −2.1
CIBIC-PLUS Raw Mean Diff., MEM v. PLA [2, 4]: −0.4
CIBIC-PLUS mean [2, 4]: 4.6
SIB (change) LS Mean Diff., MEM v. PLA [2, 4]: 13.3
SIB (change) mean [2, 4]: 0.03
ADCS-ADL (change) LS Mean Diff., MEM v. PLA [2, 5]: 1.9
ADCS-ADL (change) mean [2, 5]: −2.7
CIBIC-PLUS Raw Mean Diff., MEM v. PLA [2, 5]: −0.22
CIBIC-PLUS mean [2, 5]: 4.47
SIB (change) LS Mean Diff., MEM v. PLA [2, 5]: 5.1
SIB (change) mean [2, 5]: −4.1
ADCS-ADL (change) LS Mean Diff., MEM v. PLA [2, 6]: 0.9
ADCS-ADL (change) mean [2, 6]: −5.5
CIBIC-PLUS Raw Mean Diff., MEM v. PLA [2, 6]: −0.29
CIBIC-PLUS mean [2, 6]: 4.62
SIB (change) LS Mean Diff., MEM v. PLA [2, 6]: 10.6
SIB (change) mean [2, 6]: −2.5
ADCS-ADL (change) LS Mean Diff., MEM v. PLA [2, 7]: 1.18
ADCS-ADL (change) mean [2, 7]: −3.5
CIBIC-PLUS Raw Mean Diff., MEM v. PLA [2, 7]: −0.2
CIBIC-PLUS mean [2, 7]: 4.5
SIB (change) LS Mean Diff., MEM v. PLA [2, 7]: 3.75
SIB (change) mean [2, 7]: −4.8
ADCS-ADL (change) LS Mean Diff., MEM v. PLA [2, 8]: 4.97
ADCS-ADL (change) mean [2, 8]: −1.2
CIBIC-PLUS Raw Mean Diff., MEM v. PLA [2, 8]: −0.5
CIBIC-PLUS mean [2, 8]: 4.4
SIB (change) LS Mean Diff., MEM v. PLA [2, 8]: 14.05
SIB (change) mean [2, 8]: −0.5
ADCS-ADL (change) LS Mean Diff., MEM v. PLA ([2]; MZ-9605, week 28, ITT LOCF, baseline NPI agitation score ≧=4, listed as MEM): −4.97
ADCS-ADL (change) LS Mean Diff., MEM v. PLA [2, 9]: 2.06
ADCS-ADL (change) LS mean [2, 9]: −3.02
CIBIC-PLUS LS mean [2, 9]: 4.48
CIBIC-PLUS Raw Mean Diff., MEM v. PLA [2, 9]: −0.25
SIB (change) LS Mean Diff., MEM v. PLA [2, 9]: 5.91
SIB (change) LS mean [2, 9]: −3.93
CIBIC-Plus ratings, mean difference memantine v. placebo ([2]; at endpoint (LOCF)): 0.3
ADCS-ADL total score, mean difference memantine v. placebo ([2]; endpoint, LOCF): −2.1
SIB total score, mean difference memantine v. placebo ([2]; endpoint, LOCF): −2.1
ADCS-ADL total score, mean difference memantine v. placebo ([2]; week 28, OC): −3.4
CIBIC-Plus ratings, mean difference memantine v. placebo ([2]; week 28, OC): 0.4
SIB total score, mean difference memantine v. placebo ([2]; week 28, OC): −3.4
